Measurements reported in US20190119300A1, “SUBSTITUTED AND FUSED 6-MEMBERED PROTEASE ACTIVATED RECEPTOR 4 (PAR-4) ANTAGONISTS” (Vanderbilt University, priority 2016, published 2019).

Columns and labels:
PAR-4 [1] = target: T1, PAR-4 (Homo sapiens, UniProt Q96RI0); test: PAC-1 binding assay, washed platelets stimulated with PAR-4-AP (flow cytometry); type: cell-based; conditions: PAR-4-AP stimulation; for remaining activity at 10 µM: 10 μM antagonist, 100% = DMSO control stimulated, read-out: PAR-4 AP % Max PAC-1 binding (10 μM); for IC50: read-out: PAR-4 AP % Max PAC-1 binding (IC50 [M])
T1 construct: endogenous in cells; host or cells: washed platelets
T1 sequence (Q96RI0 18-385): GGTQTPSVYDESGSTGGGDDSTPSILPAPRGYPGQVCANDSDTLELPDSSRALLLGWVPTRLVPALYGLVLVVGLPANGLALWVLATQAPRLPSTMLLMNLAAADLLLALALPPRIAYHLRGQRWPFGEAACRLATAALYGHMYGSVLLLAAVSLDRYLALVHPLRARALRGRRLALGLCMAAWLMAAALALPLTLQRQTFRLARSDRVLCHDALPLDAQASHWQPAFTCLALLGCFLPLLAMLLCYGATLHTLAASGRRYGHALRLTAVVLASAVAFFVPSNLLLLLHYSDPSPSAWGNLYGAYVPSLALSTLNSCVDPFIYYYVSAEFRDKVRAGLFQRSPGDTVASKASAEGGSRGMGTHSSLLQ
Procedure: (§1) PAC-1 Binding assay: 60 μL of washed platelets (Tyrodes buffer containing 0.1% BSA) at a concentration of 0.15×10^8 platelets/mL were added to 5 mL round bottom polystyrene tubes (BD, Franklin Lakes, N.J.). FITC conjugated PAC-1 (BD Biosciences, San Jose, Calif.) antibody was diluted (to the manufacturers recommended concentration) in Tyrode's buffer containing 0.1% BSA. 40 μL of diluted antibody was added to the platelets and allowed to incubate for 5 minutes. Platelets were pre-treated with indicated concentrations of antagonist or DMSO control for 20 minutes (the final DMSO concentration was 0.5%) followed by addition of PAR-1-AP (GL Biochem, Shanghai, China), PAR-4-AP, or gamma-thrombin for 10 minutes. Platelet activity was quenched by the addition ice cold 1.5% paraformaldehyde followed by dilution in 1× phosphate buffered saline. Platelets were stored up to 18 hours at 4° C. before flow cytometric analysis. Analysis was carried out on a BD FACS Canto II or BD LSRII (Franklin Lakes, N.J.). Fluorescent intensity was determined for at least 20,000 events within the platelet gate (forward scatter versus side scatter). Data was collected and analyzed via FACS DiVa or FlowJo software. Flow cytometric data analysis was conducted by the following method. The DMSO-vehicle treated control was subtracted from each data point. 100% response for PAR-4-AP was determined for each individual as the DMSO treated control stimulated with PAR-4-AP, PAR-1-AP, or gamma-thrombin. Data was plotted in GraphPad PRISM v.5.0. For compounds with a notable reduction in PAC-1 binding response, dose response curves and IC50 values were generated using the inhibitory sigmoidal dose response ‘variable slope’ parameter. Results were plotted as mean±SEM.

PAR-4 [2] = target: T1, PAR-4; test: PAC-1 binding assay, washed platelets stimulated with 100 nM gamma-thrombin (flow cytometry); type: cell-based; conditions: 100 nM γ-thrombin stimulation
Source text: Gamma-thrombin is a proteolytic product of alpha-thrombin cleavage by a serine protease. Cleavage results in the disruption of exosite I which interacts directly with the hirudin-like domain of its primary substrates fibrinogen and protease-activated receptor 1 (PAR1). […] See Soslau, G., Class, R., Morgan, D. A., Foster, C., Lord, S. T., Marchese, P., and Ruggeri, Z. M. (2001) Unique pathway of thrombin-induced platelet aggregation mediated by glycoprotein Ib, The Journal of biological chemistry 276, 21173-21183. Gamma-thrombin (Enzyme Research Laboratories, South Bend, Indiana) is produced by trypsin-sepharose cleavage of alpha-thrombin. To neutralize alpha-thrombin contamination, stock solutions of gamma-thrombin are preincubated with 1 unit/mL hirudin prior 100 fold dilution into the sample for platelet stimulation. […] Single point screens and concentration response curves are conducted with 316 nanomolar or 100 nanomolar gamma-thrombin using PAC1 and CD62p binding.
as §1

SMILES	remaining activity at 10 µM (PAR-4 [1])	IC50 (PAR-4 [1])	IC50 (PAR-4 [2])
CCOc1nn2cc(-c3ccc(C(F)(F)F)cc3)nc2s1 [Example B39]	2.21%	6.48e-07 M	
COc1nn2cc(-c3cccc(OCc4csc(-c5ccccc5)n4)c3)nc2s1 [Example B47]	-0.27%	4.32e-08 M	≥ 1000 nM
COc1nn2cc(-c3ccc(-c4ccccc4)cc3)nc2s1 [Example B51]	72.7%		
COc1nn2cc(-c3ccccc3Cl)nc2s1 [Example B21]	0.74%	4.54e-07 M	
COc1nn2cc(-c3cccc(C(F)(F)F)c3)nc2s1 [Example B3]	-0.26%		
CC(C)Oc1nn2cc(-c3ccc(C(F)(F)F)cc3)nc2s1 [Example B40]	81.5%		
COc1nn2cc(-c3ccccc3)nc2s1 [Example B8]	1.48%	7.08e-07 M	
COc1nn2cc(-c3ccc(Br)cc3F)nc2s1 [Example B6]	2.82%	1.96e-07 M	
COc1nn2cc(-c3ccccc3C(F)(F)F)nc2s1 [Example B2]	-0.14%	1.33e-06 M	
COc1nn2cc(-c3ccccc3O)nc2s1 [Example B14]	92.7%		
COc1nn2cc(-c3ccc4sccc4c3)nc2s1 [Example B54]	20.7%	7.75e-08 M	> 1000 nM
COc1nn2cc(-c3cc(C(F)(F)F)cc(C(F)(F)F)c3)nc2s1 [Example B25]	-0.34%	5.23e-08 M	> 1000 nM
COc1nn2cc(-c3ccc(C(F)(F)F)cc3)nc2s1 [Example B1]	-1.91%		
COc1nn2cc(-c3ccc(C)cc3)nc2s1 [Example B12, 2-methoxy-6-(p-tolyl)imidazo[2,1-b][1,3,4]thiadiazole]	1.78%	5.2e-08 M	> 1000 nM
COc1nn2cc(-c3ccc(N4CCOCC4)cc3)nc2s1 [Example B46]	10.4%		
COc1nn2cc(-c3ccc(-c4cccs4)cc3)nc2s1 [Example B24]	3.35%	1.63e-07 M	
COc1ccc(-c2cn3nc(OC)sc3n2)cc1 [Example B10]	-1.59%	6.25e-07 M	
COc1nn2cc(-c3cccc(Cl)c3)nc2s1 [Example B23]	-1.07%	6.9e-08 M	> 1000 nM
COc1nn2cc(-c3ccc(F)cc3F)nc2s1 [Example B5]	0.21%	1.75e-07 M	
FC(F)(F)c1ccc(-c2cn3nc(OC4CCCC4)sc3n2)cc1 [Example B42]	114%		
COc1nn2cc(-c3cccc(F)c3)nc2s1 [Example B7]	1.47%	6.85e-07 M	
COc1nn2cc(-c3ccc(C#N)cc3)nc2s1 [Example B17]	0.93%	8.95e-07 M	
COc1nn2cc(-c3ccccc3F)nc2s1 [Example B30]	-0.14%	5.26e-07 M	
COc1nn2cc(-c3ccc(F)c(C(F)(F)F)c3)nc2s1 [Example B29]	-0.45%		
COc1nn2cc(-c3ccccn3)nc2s1 [Example B18]	18.6%	2.22e-05 M	
COc1nn2cc(-c3c(F)cccc3F)nc2s1 [Example B4]	1.29%		
COc1nn2cc(-c3ccccc3OC)nc2s1 [Example B15]	8.45%	3.95e-06 M	

SMILES	remaining activity at 10 µM (PAR-4 [1])	IC50 (PAR-4 [1])	IC50 (PAR-4 [2])
COc1nn2cc(-c3ccc(F)cc3)nc2s1 [Example B52]	0.063%	4.06e-07 M	
COc1nn2cc(-c3ccc(Cl)c([N+](=O)[O-])c3)nc2s1 [Example B26]	1.52%	9.95e-08 M	
COc1nn2cc(-c3ccc(OCc4csc(-c5ccccc5)n4)cc3)nc2s1 [Example B43, 2-Methoxy-6-(4-((2-phenylthiazol-4-yl)methoxy)phenyl)imidazo[2,1-b][1,3,4]thiadiazole]	0.91%	1.33e-06 M	
Fc1cccc(F)c1-c1cn2nc(OC3CCCC3)sc2n1 [Example B34]	109%		
COc1nn2cc(-c3ccccc3[N+](=O)[O-])nc2s1 [Example B49]	17.1%	> 1e-06 M	
COc1nn2cc(-c3ccc(O)cc3O)nc2s1 [Example B13]	98.4%		
COc1nn2cc(-c3cccc([N+](=O)[O-])c3)nc2s1 [Example B50]	6.82%	> 1e-06 M	
CC(C)Oc1nn2cc(-c3c(F)cccc3F)nc2s1 [Example B33]	102%		
COc1cccc(-c2cn3nc(OC)sc3n2)c1 [Example B53]	-0.071%	2.91e-07 M	
COc1nn2cc(-c3ccc(Oc4ccccc4)cc3)nc2s1 [Example B9]	-0.09%	1.43e-07 M	
CCOc1nn2cc(-c3cccc(Cl)c3)nc2s1 [Example B35]	2.31%	1.24e-06 M	
Clc1cccc(-c2cn3nc(OC4CCCC4)sc3n2)c1 [Example B38]	99.5%		
COc1nn2cc(-c3ccc(Cl)cc3)nc2s1 [Example B19]	0.02%		
COc1nn2cc(-c3cccnc3)nc2s1 [Example B22]	81.3%		
CC(C)COc1nn2cc(-c3ccc(C(F)(F)F)cc3)nc2s1 [Example B41]	102%		
COc1nn2cc(-c3ccc(S(C)(=O)=O)cc3)nc2s1 [Example B11]	4.19%	1.09e-06 M	
CC(C)Oc1nn2cc(-c3cccc(Cl)c3)nc2s1 [Example B36]	63.2%		
COc1nn2cc(-c3ccc(Cl)c(Cl)c3)nc2s1 [Example B20]	-0.92%		
CCOc1nn2cc(-c3c(F)cccc3F)nc2s1 [Example B32]	3.47%	1.17e-06 M	
CC(C)COc1nn2cc(-c3c(F)cccc3F)nc2s1 [Example B44]	93.7%		
COc1nn2cc(-c3ccc4ncn(C)c4c3)nc2s1 [Example B45]	48.1%		
COc1nn2cc(-c3ccc(O)cc3)nc2s1 [Example B16]	91.2%		
COc1nn2cc(-c3ccc(OC(F)(F)F)cc3)nc2s1 [Example B27]	-0.2%		
COc1nn2cc(-c3ccccc3OCc3csc(-c4ccccc4)n3)nc2s1 [Example B48]	96%		
CC(C)COc1nn2cc(-c3cccc(Cl)c3)nc2s1 [Example B37]	97.3%		
COc1nn2cc(-c3ccc([N+](=O)[O-])cc3)nc2s1 [Example B31]	1.6%	2.07e-07 M	
COc1nn2cc(-c3ccc(OC(F)F)cc3)nc2s1 [Example B28]	-0.21%	8.34e-08 M	> 1000 nM
